Assay [1] concerns C57BL/6 mice. Nature of the assay: LPS-induced septic shock. It is filed as in vivo, mouse. The procedure: LPS-induced septic shock and air pouch model—Eight- to twelve-week-old C57BL/6 mice were subjected to LPS-induced septic shock as described (Zhong et al., 2016c). Briefly, 50 mg/kg LPS was intraperitoneal (IP) injected, and when indicated, animals were pretreated with the ChoKα inhibitor MN58B 2.5 mg/kg or vehicle (sodium chloride) via IP injection daily, starting three days before LPS challenge. Mice were analyzed for survival and circulating cytokines (3 hr after LPS challenge). None of the animals was excluded from the analysis.

In assay [2] the test system is MWS Nlrp3^A350VneoRCreT mutant mice. The experiment in a line: Muckle Wells Syndrome mice. Conditions: 2.5 mg/kg IP BID for 15 days. It counts as in vivo, mouse. The procedure: Muckle Wells Syndrome Mice—Sixteen- to twenty-two-week-old male MWS Nlrp3^A350VneoRCreT mutant mice were subjected to MN58b (2.5 mg/kg) or vehicle IP injection BID daily for 15 days. Tamoxifen (50 mg/kg) was administered daily via IP for 4 days after first MN58b (or vehicle) treatment, and once more on day 7 to maintain Cre expression. At the endpoint, blood, spleen and liver were collected for analysis. Complete blood counts were preformed using a ScilVet Animal Blood Counter (ABX Diagnostics). Livers were paraffin embedded and hematoxylin and eosine staining was performed to assess liver histology. None of the animals was excluded from the analysis and liver histology was blind examined.

The subject of assay [3] is C57BL/6 mice. Nature of the assay: Synovium-like air pouch gout model (MSU crystals). It counts as in vivo, mouse. The procedure:
Synovium-like air pouch gout model—Subcutaneous air pouches were generated by repeated injection of sterile air into 8-12-week old C57BL/6 mice to create an accessible space that develops a synovium-like membrane within 7 days as described (Wang et al., 2016). Afterward, mice were treated with MN58b IP (2.5 mg/kg) or vehicle, 24 hr before injecting lml MSU crystals (3 mg/ml) into the air pouch. Pouch tissue and fluids were harvested 8 hr later for analysis. None of the animals was excluded from the analysis.

Assay [4] concerns choline mobilization via the Kennedy pathway. Nature of the assay: Choline, phosphocholine and phosphatidylcholine content of LPS-stimulated BMDM (NMR, MS). Conditions: BMDM, LPS 4 hr. It counts as cell-based, mouse. The procedure: Choline and Phosphocholine Analysis by NMR—BMDM were treated with LPS for 4 hr and then were collected and processed for NMR analysis as described (Guma et al., 2015a; Tiziani et al., 2009). Polar metabolite isolation was performed using a modified Bligh-Dyer procedure (Wu et al., 2008). Extracts were dried using a CentriVap refrigerated vacuum concentrator (Labconco, Kansas City, MO, USA). Dried extracts were reconstituted in 100 mM phosphate buffer (pH 7.0) prepared in 10% H2O/90% D2O (Sigma) that contained 0.5 mM sodium 3-(trimethylsilyl)propionate-2,2,3,3,-d4 (TMSP) as the internal standard. One-dimensional ^1H NMR spectra were acquired on a Bruker Avance III 500 MHz with 1.7 mm TCI MicroCryoProbe system (Bruker BioSpin Corp., Billerica, MA) equipped with an autosampler at 300 K and processed as previously described (Lodi et al., 2017; Lu et al., 2017; Ludwig and Gunther, 2011). Metabolite assignment and quantification were performed using the Chenomx 8.2 NMR Suite (Chenomx Inc., Edmonton, Alberta, Canada), the Birmingham Metabolite Library (Ludwig et al., 2012), and the Human Metabolome Database (Wishart et al., 2012).
Total phosphatidylcholine and mitochondrial lipids analysis by mass spectrometry—Total phosphatydilcholine (PC) analysis was measured in RSM932A-pretreated BMDM stimulated with LPS for 4 hr, while mitochondrial lipids were measured in mitochondria isolated from BMDM cultured in control or choline deficient medium and subjected to different treatments for 24 hr. Samples were processed for UHPLC-MS/MS analysis and analysis was performed on a hybrid quadrupole-Orbitrap mass spectrometer (Q Exactive, Thermo Scientific, Bremen, Germany) coupled to an Accela 1250 UHPLC system equipped with a quaternary pump, vacuum degasser, and open autosampler with temperature controller (6° C.; Fisher Scientific, San Jose, CA, USA). […]

Assay [5] relates to CTL1. The experiment in a line: CTL1 protein expression in LPS stimulated BMDM (immunoblot). Conditions: LPS stimulation. It is filed as cell-based, mouse. The procedure:
Macrophage culture and stimulation—Femurs and tibias from C57BL/6 mice, Ampkα1^−/− mice, and Il10rb^−/− mice at 6-10 weeks of age were used to generate bone-marrow-derived macrophages (BMDM) as described (Hornung et al., 2008). Macrophages were cultured in DMEM supplemented with 10% FBS, 20% L929-cell conditioned medium, and 100 U/ml penicillin-streptomycin for 7-10 days. Bone marrow was isolated from MWS Nlrp3^A350VneoRCreT, FCAS Nlrp3^L351PneoCreT and NOMID Nlrp3^D301NneoCreT conditional knock-in mice (Bonar et al., 2012; Brydges et al., 2009), and were allowed to differentiate over 7 days with addition of fresh mouse recombinant GMCSF every three days. (Z)-4-hydroxitamoxifen at 0.4 μg/ml was added to cells 24 hr prior to treatment to induce the mutant Nlrp3 allele. Immortalized mouse BMDM were grown in DMEM supplemented with 10% FBS and 100 U/ml penicillin-streptomycin. All cells were grown at 37° C. with 5% CO2. […]
(§1) Protein Immunoblotting and ELISA—Mitochondria were isolated using Mitochondria Isolation kit. Whole cell lysates were prepared in NP40 buffer containing a protease inhibitor cocktail and a phosphatase inhibitor cocktail, and supernatants were analyzed by SDS-PAGE. […]

Assay [6] has as its system NLRP3 inflammasome. The experiment in a line: IL-1β release by LPS-primed macrophages stimulated with NLRP3 activators (ELISA). It counts as cell-based, mouse. Particulars: BMDM pretreated with A769662, LPS-primed, ATP and nigericin 40 min. The procedure:
Macrophage culture and stimulation—Femurs and tibias from C57BL/6 mice, Ampkα1^−/− mice, and Il10rb^−/− mice at 6-10 weeks of age were used to generate bone-marrow-derived macrophages (BMDM) as described (Hornung et al., 2008). Macrophages were cultured in DMEM supplemented with 10% FBS, 20% L929-cell conditioned medium, and 100 U/ml penicillin-streptomycin for 7-10 days. Bone marrow was isolated from MWS Nlrp3^A350VneoRCreT, FCAS Nlrp3^L351PneoCreT and NOMID Nlrp3^D301NneoCreT conditional knock-in mice (Bonar et al., 2012; Brydges et al., 2009), and were allowed to differentiate over 7 days with addition of fresh mouse recombinant GMCSF every three days. (Z)-4-hydroxitamoxifen at 0.4 μg/ml was added to cells 24 hr prior to treatment to induce the mutant Nlrp3 allele. Immortalized mouse BMDM were grown in DMEM supplemented with 10% FBS and 100 U/ml penicillin-streptomycin. All cells were grown at 37° C. with 5% CO2. NLRP3 inflammasome activation was induced priming for 4 hr with ultrapure LPS (100 ng/ml) followed by treatment with the NLRP3 activators ATP (4 mM) and nigericin (10 μM) for 45 min, unless otherwise indicated, and monosodium urate (MSU) crystals (400 μg/ml) and 1,2-dioleoyl-3-trimethylammoniumpropane (DOTAP) liposomes (50 μg/ml) for 3 hr. In Nlrp3 mutant macrophages IL-1b production was induced by LPS treatment for 16 hr at 37° C., whereas FCAS macrophages were incubated at 32° C. without LPS addition. AIM2 inflammasome activation was induced by 4 hr LPS priming and transfection with lipofectamine 3000 and the AIM2 activator poly(dA:dT) (1 μg/ml) for 8 hr. For choline deprivation experiments, the cells were cultured in CMRL1066 medium with or without choline for 2-3 hr before priming with LPS and kept during the experiment.
as §1

In assay [7] the test system is Slc44a1/CTL1. The experiment in a line: Slc44a1/CTL1 induction by LPS in BMDM (QPCR). It counts as cell-based, mouse. Particulars: BMS345541-pretreated BMDM treated with LPS. How it is done: RNA Isolation and Quantitative Real-Time PCT (QPCR)—RNA was extracted using AllPrep DNA/RNA Mini kit, and cDNA was synthesized using SUPERSCRIPT™ VILO™ cDNA Synthesis Kit. mRNA expression was determined by QPCR in a CFX96 thermal cycler (Biorad) as described (Zhong et al., 2016c). Data are presented in arbitrary units and were calculated by 2^(-delta delta CT) method. Primer sequences were obtained from the NIH qPrimerDepot (mouseprimerdepot.nci.nih.gov) and provided by Integrated DNA technologies, as set forth below.

In assay [8] the test system is CTL1. The experiment in a line: CTL1 levels after colchicine treatment. It is filed as cell-based.
Sequence of CTL1 (Q6X893 whole entry): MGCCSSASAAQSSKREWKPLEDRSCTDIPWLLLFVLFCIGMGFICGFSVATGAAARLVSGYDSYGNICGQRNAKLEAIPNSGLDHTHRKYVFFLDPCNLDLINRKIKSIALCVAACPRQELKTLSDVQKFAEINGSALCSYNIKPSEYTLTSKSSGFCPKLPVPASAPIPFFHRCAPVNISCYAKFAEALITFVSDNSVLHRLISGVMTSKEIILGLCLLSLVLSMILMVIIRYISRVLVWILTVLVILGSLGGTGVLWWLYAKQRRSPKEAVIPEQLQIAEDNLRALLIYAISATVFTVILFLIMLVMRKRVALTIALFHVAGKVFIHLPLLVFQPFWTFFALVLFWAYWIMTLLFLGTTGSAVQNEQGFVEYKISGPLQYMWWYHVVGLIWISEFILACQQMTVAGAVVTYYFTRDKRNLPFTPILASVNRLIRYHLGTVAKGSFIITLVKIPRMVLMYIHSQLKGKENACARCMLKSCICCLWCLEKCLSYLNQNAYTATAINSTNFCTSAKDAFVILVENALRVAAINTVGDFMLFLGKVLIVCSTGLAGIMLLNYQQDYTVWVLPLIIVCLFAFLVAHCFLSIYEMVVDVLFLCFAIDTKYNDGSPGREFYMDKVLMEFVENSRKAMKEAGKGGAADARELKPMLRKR
The subject of assay [9] is ChoKα. The experiment in a line: ChoKα levels after colchicine treatment. It is filed as cell-based.

For `CN(C)c1cc[n+](Cc2ccc(CCCCc3ccc(C[n+]4ccc(N(C)C)cc4)cc3)cc2)cc1.[Br-].[Br-]` [MN58b], the LPS-induced death entry in [1] (2.5 mg/kg IP daily for 3 days before 50 mg/kg LPS IP) is “prevented”. Moreover, the “circulating IL-1β” value in assay [1] (2.5 mg/kg IP daily for 3 days before LPS, 3 hr after LPS) is listed as “reduced”. For the same compound, in assay [1] (circulating, 3 hr after LPS), the IL-6 production result is on record as “did not inhibit” and the TNF production result was “did not inhibit”. In assay [2], the MWS splenomegaly entry is “reduced”, the granulocytes result is listed as “reduction”, the liver size result is on record as “reduced” and the lymphocyte count entry is given as “without an effect”. In assay [2], the monocytes entry was “reduction” and the “total white blood cells count” value is on record as “reduction”. In assay [3] (2.5 mg/kg 24 hr before MSU crystals), the “total leukocyte recruitment into the pouch” value is given as “attenuated”. Moreover, in [3] (2.5 mg/kg 24 hr before MSU crystals, pouch), the “production of IL-1β” value was “reduced”. In addition, the “reduction of IL-1β release” value in assay [3] (2.5 mg/kg IP 24 hr before MSU crystals, pouch harvested 8 hr later, p<0.01) is 66%. In addition, in assay [3] (2.5 mg/kg IP 24 hr before MSU crystals, pouch harvested 8 hr later, p<0.05), the “reduction of MSU crystal-induced leukocyte recruitment” value was 47%.
On to lipopolysaccharide [LPS], for which, in assay [4] (p<0.001), the increase of phosphocholine is listed as 559%. Also, the “increase of intracellular choline” value in assay [4] (p<0.01) amounted to 238%. Besides, the “increase of CTL1 expression” value in assay [5] is listed as 6 fold.
On to `N#Cc1c(O)c2c(-c3ccc(-c4ccccc4O)cc3)csc2[nH]c1=O` [A769662], for which the IL-1β production result in assay [6] was “significantly reduced”.
Take `Cc1ccc2nc(NCCN)c3ncc(C)n3c2c1` [BMS345541]: the Slc44a1/CTL1 induction entry in assay [7] is reported as “blocked”.
Consider `COc1cc2c(c(OC)c1OC)-c1ccc(OC)c(=O)cc1[C@@H](NC(C)=O)CC2` [colchicine], for which the “reduction of CTL1 levels” value in [8] was found to be 90%. Moreover, the “reduction of ChoKα levels” value in assay [9] came to 85%.
